Laboratory results published in ChEMBL document CHEMBL3875162, “Synthesis and biological evaluation of new benzimidazole-thiazolidinedione hybrids as potential cytotoxic and apoptosis inducing agents” (Eur J Med Chem, 2016).
pIC50: −log10 of the molar value. Active and inactive are the calls of the source. The rule behind the calls is not given here.

Assays:
[1] = tested on: A549; experiment: Induction of apoptosis in human A549 cells assessed as cell membrane blebbing at 5 uM after 24 hrs by acridine orange/ethidium bromide-dual staining based fluorescence microscopic method; format: functional
[2] = Cytotoxicity against human MCF10A cells assessed as cell growth inhibition after 48 hrs by MTT assay; format: toxicity, cell-based, MCF-10A
[3] = Cell cycle arrest in human A549 cells assessed as accumulation at G2/M phase at 15 uM after 24 hrs by propidium iodide staining-based flow cytometry (reference value: 23.3%); format: functional
[4] = tested on: A549; experiment: Induction of apoptosis in human A549 cells assessed as nucleus fragmentation at 5 to 15 uM after 24 hrs by DAPI staining based fluorescence microscopic method; format: functional, cell-based
[5] = Induction of apoptosis in human A549 cells assessed as irregular distribution of chromatin at 10 to 15 uM after 24 hrs by acridine orange/ethidium bromide-dual staining based fluorescence microscopic method; format: functional, cell-based
[6] = Cell cycle arrest in human A549 cells assessed as decrease in cell levels at G0/G1 phase after 24 hrs by propidium iodide staining-based flow cytometry; format: functional
[7] = Cell cycle arrest in human A549 cells assessed as accumulation at G2/M phase at 5 uM after 24 hrs by propidium iodide staining-based flow cytometry (reference value: 23.3%); format: functional
[8] = tested on: A549; experiment: Induction of apoptosis in human A549 cells assessed as early apoptotic cells at 15 uM after 24 hrs by Annexin V-FITC/propidium iodide staining based flow cytometry (reference value: 2.6%); format: functional
[9] = tested on: A549; experiment: Induction of apoptosis in human A549 cells assessed as appearance of horse-shoe shaped nucleus at 5 to 15 uM after 24 hrs by DAPI staining based fluorescence microscopic method; format: functional, cell-based
[10] = Antimigratory activity in human A549 cells assessed as cell migration at 15 uM after 48 hrs by phase contrast microscopy-based wound healing assay relative to control; format: functional
[11] = Cell cycle arrest in human A549 cells assessed as accumulation at S phase at 10 uM after 24 hrs by propidium iodide staining-based flow cytometry (reference value: 11.5%); format: functional
[12] = Antimigratory activity in human A549 cells assessed as cell migration at 15 uM after 24 hrs by phase contrast microscopy-based wound healing assay relative to control; format: functional
[13] = tested on: A549; experiment: Induction of mitochondrial membrane potential loss in human A549 cells at 10 uM after 24 hrs by rhodamine-123 staining based flow cytometry relative to control; format: functional
[14] = tested on: A549; experiment: Induction of apoptosis in human A549 cells assessed as late apoptotic cells at 10 uM after 24 hrs by Annexin V-FITC/propidium iodide staining based flow cytometry (reference value: 0.8%); format: functional
[15] = tested on: A549; experiment: Induction of apoptosis in human A549 cells assessed as condensation of chromatin at 5 uM after 24 hrs by acridine orange/ethidium bromide-dual staining based fluorescence microscopic method; format: functional, cell-based
[16] = tested on: A549; experiment: Induction of apoptosis in human A549 cells after 24 hrs by Annexin V-FITC/propidium iodide staining based flow cytometry; format: functional, cell-based
[17] = Cytotoxicity against human DU145 cells assessed as cell growth inhibition after 48 hrs by MTT assay; format: functional, cell-based; conditions: DU-145, 48 h
[18] = Cell cycle arrest in human A549 cells assessed as accumulation at G0/G1 phase at 15 uM after 24 hrs by propidium iodide staining-based flow cytometry (reference value: 66.6%); format: functional
[19] = tested on: A549; experiment: Antimigratory activity in human A549 cells after 24 hrs by phase contrast microscopy-based wound healing assay; format: functional, cell-based
[20] = Cell cycle arrest in human A549 cells assessed as accumulation at G0/G1 phase at 10 uM after 24 hrs by propidium iodide staining-based flow cytometry (reference value: 66.6%); format: functional
[21] = tested on: A549; experiment: Induction of apoptosis in human A549 cells assessed as viable cells at 5 uM after 24 hrs by Annexin V-FITC/propidium iodide staining based flow cytometry (reference value: 94%); format: functional; conditions: A549, 24 h, read-out: Activity
[22] = tested on: A549; experiment: Induction of apoptosis in human A549 cells assessed as necrotic cells at 10 uM after 24 hrs by Annexin V-FITC/propidium iodide staining based flow cytometry (reference value: 2.3%); format: functional
[23] = tested on: A549; experiment: Induction of apoptosis in human A549 cells assessed as early apoptotic cells at 5 uM after 24 hrs by Annexin V-FITC/propidium iodide staining based flow cytometry (reference value: 2.6%); format: functional
[24] = Antimigratory activity in human A549 cells assessed as cell migration at 10 uM after 24 hrs by phase contrast microscopy-based wound healing assay relative to control; format: functional
[25] = Cytotoxicity against human PC3 cells assessed as cell growth inhibition after 48 hrs by MTT assay; format: functional, cell-based; conditions: PC-3, 48 h
[26] = tested on: A549; experiment: Induction of morphological changes in human A549 cells assessed as […] at 5 to 15 uM after 24 hrs by phase contrast microscopic method; format: functional, cell-based
[27] = tested on: A549; experiment: Induction of apoptosis in human A549 cells assessed as pyknosis at 5 to 15 uM after 24 hrs by DAPI staining based fluorescence microscopic method; format: functional, cell-based
[28] = Cell cycle arrest in human A549 cells assessed as accumulation at G2/M phase at 10 uM after 24 hrs by propidium iodide staining-based flow cytometry (reference value: 23.3%); format: functional
[29] = Cytotoxicity against human A549 cells assessed as cell growth inhibition after 48 hrs by MTT assay; format: functional, cell-based; conditions: A549, 48 h
[30] = tested on: A549; experiment: Inhibition of F-actin polymerization in human A549 cells assessed as disruption of actin fibre assembly after 24 hrs by rhodamine-phalloidin/[…]-dual staining based fluorescent microscopic method; format: cell-based
[31] = tested on: A549; experiment: Induction of morphological changes in human A549 cells assessed as cell shrinkage at 5 to 15 uM after 24 hrs by phase contrast microscopic method; format: functional, cell-based
[32] = tested on: A549; experiment: Induction of mitochondrial membrane potential loss in human A549 cells at 5 uM after 24 hrs by rhodamine-123 staining based flow cytometry relative to control; format: functional
[33] = tested on: A549; experiment: Induction of mitochondrial membrane potential loss in human A549 cells at 15 uM after 24 hrs by rhodamine-123 staining based flow cytometry relative to control; format: functional
[34] = Cell cycle arrest in human A549 cells assessed as accumulation at S phase at 5 uM after 24 hrs by propidium iodide staining-based flow cytometry (reference value: 11.5%); format: functional
[35] = tested on: A549; experiment: Induction of apoptosis in human A549 cells assessed as apoptotic body formation at 10 to 15 uM after 24 hrs by acridine orange/ethidium bromide-dual staining based fluorescence microscopic method; format: functional, cell-based
[36] = Cell cycle arrest in human A549 cells assessed as accumulation at S phase at 15 uM after 24 hrs by propidium iodide staining-based flow cytometry (reference value: 11.5%); format: functional
[37] = tested on: A549; experiment: Induction of apoptosis in human A549 cells assessed as late apoptotic cells at 15 uM after 24 hrs by Annexin V-FITC/propidium iodide staining based flow cytometry (reference value: 0.8%); format: functional
[38] = tested on: A549; experiment: Induction of apoptosis in human A549 cells assessed as destructive fragmentation of nucleus forming horse-shoe shaped structure at 10 to 15 uM after 24 hrs by acridine orange/ethidium bromide-dual staining based fluorescence microscopic method; format: functional, cell-based
[39] = tested on: A549; experiment: Induction of apoptosis in human A549 cells assessed as chromatin condensation at 5 to 15 uM after 24 hrs by DAPI staining based fluorescence microscopic method; format: functional, cell-based

Question: Which results are given for Cn1c(/C=C2\SC(=O)N(CC(=O)Nc3nc(-c4ccccc4)cs3)C2=O)nc2ccccc21?
Answer: Activity [1]: Active; IC50 at 48 h [2]: > 100 µM; Activity [3]: 57.8%; Activity [4]: Active; Activity [5]: Active; Activity [6]: Dose-dependent effect; Activity [7]: 41.4%; Activity [8]: 19.4%; Activity [9]: Active; Activity [10]: 29.6%; Activity [11]: 7.9%; Activity [12]: 60.4%; Activity [13]: 30.6%; Activity [14]: 7.9%; Activity [15]: Active; Activity [16]: Dose-dependent effect; pIC50 [17]: 4.50; Activity [18]: 30.5%; Activity [19]: Dose-dependent effect; Activity [20]: 44.8%; viability at 5 µM [21]: 80.5%; Activity [22]: 3%; Activity [23]: 12.8%; Activity [24]: 74.3%; pIC50 [25]: 4.40; Activity [26]: Active; Activity [27]: Active; Activity [28]: 49.3%; pIC50 [29]: 4.94; inhibition [30]: Dose-dependent effect; Activity [31]: Active; Activity [32]: 24.6%; Activity [33]: 45.8%; Activity [34]: 11.4%; Activity [35]: Active; Activity [36]: 13.5%; Activity [37]: 11.9%; Activity [38]: Active; Activity [39]: Active
